Tested on: RAW264.7 macrophages
Experiment: Phagocytosis assay with pHrodo green E. coli bioparticles
Assay type: cell-based
Settings: additional incubation, regardless of LPS dose
Experimental: The RAW264.7 macrophage cells (ATCC Cat# TIB-71, RRID: CVCL_0493) were grown in sterile media which consisted of DMEM high glucose, 10% FBS, 2mM L-glutamine, 1x Pen-strep and 1x sodium pyruvate in a humidified 5% CO2 incubator at 37°C. RAW264.7 were maintained in […] tissue culture flasks and plated at a density of 1 × 10^4 cells in triplicate in 96-well plates for assays. Cells were stimulated with either lipopolysaccharide (LPS O111:B4; Sigma Cat#L2630) at 100ng/mL or 1000ng/mL (750EU/mL or 7500 EU/mL, respectively). One hour prior to this stimulation the cells were pre-treated with the CB2 inverse agonist SMM-189 at 3μM or 7 μm or its vehicle. Specifically for cell culture experiments, SMM-189 was formulated with 40% ethanol (v/v), 20% tween-20 (v/v) and 40% saline (v/v). A phagocytosis assay was conducted 24 h after LPS.
The phagocytosis assay was performed using pHrodo green E. coli bioparticles (Invitrogen Cat# P35366) according to the manufacturer’s instructions. Five images per well were then collected every 30 min for 24 h on an EVOS M7000 microscope (Invitrogen, ThermoFisher Scientific). The cells were maintained for this duration using an on-stage incubator kept at 37°C and 5% CO2. Analysis of the collected images was performed using EVOS Celleste software (version 5.0), which counted the cells and then measured the integrated optical density of fluorescence within each well over the 24-hour time course. Analysis was conducted on the average integrated optical density across triplicate wells. Results were consistent across duplicate experimental replicates.

C=C1[C@@H](C)[C@H]2[C@H](Cc3ccccc3)NC(=O)[C@]23[C@H](OC(C)=O)/C=C/[C@@](C)(O)C(=O)[C@@H](C)C/C=C/[C@H]3[C@@H]1O [cytochalasin D, reference compound]
GFP expression (phagocytosis control): significantly restricted

Source: PMC11438102, “Modulation of cannabinoid receptor 2 alters neuroinflammation and reduces formation of alpha-synuclein aggregates in a rat model of nigral synucleinopathy” (Journal of Neuroinflammation, 2024)
